Data published in US20030220402A1, “Cancer remedy comprising anthranilic acid derivatives as active ingredients” (priority 2000, published 2003).

system: L929 cells; experiment: Measurement of cytotoxicity using mouse tumorous cells L929 (Neutral Red assay); format: cell-based; settings: 3 days culture, concentration manifesting 50% cytotoxicity
Protocol: Measurement of Cytotoxicity Using Mouse Tumorous Cells L929
The cytotoxic activity against tumorous cells was measured according to a Neutral Red assay method [the method described in Journal of Tissue Culture Methodology, vol. 9, p. […] 24, p. […] Namely, 100 μL each of L929 cells (5×10^4 cells/mL, 10% FCS/RPM1) was added to a 96-well ELISA plate, and the cells were cultured overnight. The test compound at each measuring concentration was dissolved in a DMSO solution and added, and culturing was further continued for 3 days. To the cultured cells, was then added 2.0 μL of Neutral Red so as to provide the final concentration of 0.01%. Incubation was conducted at 37° C. for 1 hour, and the cell culture supernatant was removed. The resultant cultured cells were washed with […] of PBS twice to remove the excessive Neutral Red. To the washed cells, was then added 100 μL of a 50% ethanol-1% aqueous acetic acid. The dye incorporated in the cells was extracted, and the amount of the dye was determined by measuring the absorbance at 490 nm. The case where a drug was not added was taken as 100%, and the cytotoxicity was determined at the concentrations of the respective test compounds. […] The measurements under the same conditions in two sets each were made, and the data were, obtained from the average values.

First: O=C(Cc1ccc(Oc2ccc3ccccc3c2)cc1)Nc1ccccc1C(=O)O [Compound No. 59, 2-(4-(2-naphthyloxy)phenylacetamido)benzoic acid]
Second: O=C(Cc1ccc(Oc2ccc(OCc3ccccc3)cc2)cc1)Nc1ccccc1C(=O)O [Compound No. 316, 2-(4-(4-benzyloxyphenoxy)phenylacetamido)benzoic acid]
The LD50 of the first is 2.7-fold higher: 1.6 µM for the first, 0.60 µM for the second.

`O=C(Cc1ccc(Oc2ccc(OC3CCCCC3)cc2)cc1)Nc1ccccc1C(=O)O` [compound 288, 2-(4-(4-cyclohexyloxyphenoxy)phenylacetamido)benzoic acid] was tested, and the LD50 was 0.20 µM.

`COC(=O)c1ccccc1NC(=O)Cc1ccc(Oc2ccc(O)cc2)cc1` [Compound No. 296, methyl 2-(4-(4-hydroxyphenoxy)phenylacetamido)benzoate] was tested, and the LD50 was greater than 5 µM.
